Laboratory results published in patent publication US20230310459A1, “NEUROACTIVE STEROIDS AND THEIR METHODS OF USE” (Sage Therapeutics, Inc., priority 2017, published 2023).
“Also recorded” adds a separate entry of the source. Marks after values point to notes of the source that are not given here.

How the values were obtained:
Type in all cases: in vivo, human
[1] = Phase 2 open-label study (Part A): plasma pharmacokinetics; settings: 30 mg oral solution once daily with food, N=13
Method: (§1) Compound 1 was provided as a 6 mg/mL stock aqueous solution, which was further diluted with sterile water to achieve the selected dose that was administered as an oral solution. Participants received an open label 30 mg Compound 1 oral dose administered at 8:00 PM (+/−15 minutes) with food on Days 1 through 14. Subjects who experienced drug-related moderate or severe adverse events (as judged by the study investigators) while receiving the 30 mg dose of study drug were to have their dose reduced to 20 mg for the remaining treatment period. Any subjects not tolerating a 20 mg dose were to be terminated from the study. Vital signs were collected daily. Other study procedures and plasma collection for PK parameters were conducted at various times during the 14-day open label treatment period (procedure details in the Supplemental Appendix). Treatment follow-up was conducted on an outpatient basis and included a follow-up visit at 1 week (21+/−1 day) and at 2 weeks (28+/−1 day) after the last dose of the study drug.
(§2) The primary endpoint of safety and tolerability of Compound 1 was assessed by the frequency and severity of adverse events, vital signs, changes in clinical laboratory measures, physical exams, electrocardiograms (ECGs), the Stanford Sleepiness Scale (SSS) score, and suicide ideation using the Columbia-Suicide Severity Rating Scale (C-SSRS, Supplemental Table 1). Secondary efficacy endpoints included: change from baseline in HAM-D total score, HAM-D response, defined as having a 50% or greater reduction from baseline in HAM-D total score, HAM-D remission, defined as having a HAM-D total score of ≤7, HAM-A change from baseline, and MADRS score change from baseline. The PK profile of Compound 1 was also determined from plasma samples.

[2] = system: Adult patients with moderate to severe Major Depressive Disorder (MDD); test: Phase 2 double-blind placebo-controlled trial (Part B): HAM-D efficacy
Method: (§3) In the randomized, double-blind, parallel-group, placebo-controlled trial, eligible patients (with a minimum total score of 22 on the Hamilton Rating Scale for Depression) were stratified based on use of antidepressant treatment (current/stable or not treated/withdrawn ≥30 days) and randomized in a 1:1 ratio to receive Compound 1 Capsules (30 mg) or matching placebo. All doses of study drug were administered at night with food. The study consisted of a 14-day treatment period, and a 4-week follow-up period. The mean HAM-D total scores at baseline were 25.2 for the Compound 1 group and 25.7 for the placebo group (overall range 22-33), representing patients with moderate to severe MDD. Approximately 90 percent of patients in each group completed the study.

[3] = system: Subjects with Major Depressive Disorder; test: Phase 2 open-label study (Part A): safety and tolerability (TEAEs, C-SSRS); settings: N=13
Method: In this multicenter, open-label, Phase 2 clinical trial, subjects were administered 30 mg Compound 1 on Days 1-14 and assessed through Day 28. Reductions in depressive and anxiety symptoms were assessed by the Hamilton Rating Scales for Depression and Anxiety (HAM-D and HAM-A), and the Montgomery-Asberg Depression Rating Scale (MADRS). Safety and tolerability were assessed via standard safety parameters. Pharmacokinetic parameters were also evaluated.
as §1, §2
Subjects were monitored for safety during the Treatment and Follow-up Periods including monitoring for adverse events/serious adverse events, routine clinical laboratory assessments, physical examination, vital signs, and ECG. During the Treatment Period, subjects received study drug as long as there are no dose-limiting safety/tolerability concerns

[4] = system: Adult patients with moderate to severe Major Depressive Disorder (MDD); test: Phase 2 double-blind placebo-controlled trial (Part B): safety and tolerability
Method: as §3

C[C@@]1(O)CC[C@H]2[C@H](CC[C@@H]3[C@@H]2CC[C@]2(C)[C@@H](C(=O)Cn4cc(C#N)cn4)CC[C@@H]32)C1 [Compound 1, 1-(2-((3R,5R,8R,9R,10S,13S,14S,17S)-3-hydroxy-3,13-dimethylhexadecahydro-1H-cyclopenta[a]phenanthren-17-yl)-2-oxoethyl)-1H-pyrazole-4-carbonitrile]
Cavg ss, geometric mean ([1]; Day 7, steady state): 41.4 ng/mL
Cmax ([1]; human, plasma, Day 7, steady state, MDD subjects, read-out: Cmax, geometric mean): 101 ng/mL
AUC(0-t) ([1]; human, plasma, Day 7, steady state, read-out: AUC0-t, geometric mean): 992 ng·h/mL
AUC(0-inf) ([1]; human, plasma, Day 7, steady state, read-out: AUCinf, geometric mean): 1150 ng·h/mL
half-life ([1]; human, plasma, Day 7, read-out: T1/2, median (converted)): 10.3 h
Tmax ([1]; human, plasma, Day 7, read-out: Tmax, median): 1.1 h
onset of improvement in HAM-D total score compared to placebo ([2]; Capsules 30 mg at night with food): significant by the morning following the first dose (Day 2)
HAM-D total score, mean reduction from baseline ([2]; Day 15, Capsules 30 mg at night with food for 14 days, baseline 25.2, placebo 10.7): 17.6 points
HAM-D total score, least squared mean difference from placebo ([2]; Day 15, p<0.0001): −7.0
remission rate (HAM-D total score not more than 7) ([2]; Day 15, placebo 23 percent, p=0.0005): 64%
HAM-D total score, mean reduction from baseline ([2]; Week 4, placebo 11.9, p=0.0243): 15.6
remission rate ([2]; Week 4, placebo 28 percent, p=0.0221): 52%
HAM-D total score, mean reduction from baseline ([2]; Week 6, placebo 13.0, not statistically improved): 15.0
remission rate ([2]; Week 6, placebo 33 percent, not significant): 45%
At least one TEAE, number of subjects ([3]; 30 mg once daily Days 1-14): 12 subjects
tolerability ([3]; 30 mg once daily Days 1-14): generally well tolerated
C-SSRS Subject engaged in non-suicidal self-injurious behavior, number of subjects who answered yes ([3]; Day 2-15 (yes on Days 10-13)): 1*
C-SSRS Aborted attempt, number of subjects who answered yes ([3]; Day 2-15): 0
C-SSRS Actual attempt, number of subjects who answered yes ([3]; Day 2-15): 0
C-SSRS Interrupted attempt, number of subjects who answered yes ([3]; Day 2-15): 0
C-SSRS Preparatory acts or behavior, number of subjects who answered yes ([3]; Day 2-15): 0
C-SSRS Suicidal behavior, number of subjects who answered yes ([3]; Day 2-15): 0
Dizziness, number of subjects [3]: 3 subjects
Dizziness, percent of subjects [3]: (23.1%)
Drug-related TEAE, number of subjects [3]: 11 subjects
Drug-related TEAE, percent of subjects [3]: (84.6%)
Headache, number of subjects [3]: 4 subjects
Headache, percent of subjects [3]: (30.8%)
Myalgia, number of subjects [3]: 3 subjects
Myalgia, percent of subjects [3]: (23.1%)
Nasal Congestion, number of subjects [3]: 2 subjects
Nasal Congestion, percent of subjects [3]: (15.4%)
Sedation, number of subjects [3]: 6 subjects
Sedation, percent of subjects [3]: (46.2%)
Serious AE, number of subjects [3]: 0 subjects
Severe TEAE, number of subjects [3]: 0 subjects
Somnolence, number of subjects [3]: 3 subjects
Somnolence, percent of subjects [3]: (23.1%)
TEAE leading to death, number of subjects [3]: 0 subjects
TEAE leading to drug discontinuation, number of subjects [3]: 0 subjects
changes in clinical hematology, urinalysis, vital signs, or ECGs [3]: no clinically relevant changes
serious adverse events (SAEs) or discontinuations due to AEs [3]: no serious adverse events (SAEs) or discontinuations due to AEs
deaths, serious or severe adverse events ([4]; Capsules 30 mg for 14 days): no deaths, serious or severe adverse events
most common AEs ([4]; Capsules 30 mg for 14 days): headache, dizziness, nausea, and somnolence
tolerability ([4]; Capsules 30 mg for 14 days): generally well-tolerated; also recorded: generally well tolerated
overall incidence of patients who experienced adverse events ([4]; Capsules 30 mg for 14 days, placebo 46%): 53%
rate of discontinuation from dosing of study drug due to adverse events ([4]; two patients, none with placebo): 4.4%
